Measurements taken from ChEMBL document CHEMBL4321846, “Discovery of a Potent and Selective Oral Inhibitor of ERK1/2 (AZD0364) That Is Efficacious in Both Monotherapy and Combination Therapy in Models of Nonsmall Cell Lung Cancer (NSCLC)” (J Med Chem, 2019).

Assays:
[1] = molecular target: T1, Mitogen-activated protein kinase 1 (Homo sapiens, UniProt P28482); experiment: Binding affinity to MEK-activated phosphorylated biotinylated ERK2 (unknown origin) by SPR analysis
[2] = molecular target: T1, Mitogen-activated protein kinase 1
[3] = Volume of distribution at steady state in rat; assay type: ADME; conditions: in vivo, read-out: Vdss
[4] = molecular target: Mitogen-activated protein kinase 15 (Homo sapiens) (UniProt Q8TD08); experiment: Inhibition of recombinant human N-terminal 4xFLAG-tagged/C-terminal His8-fused ERK7 N-terminal domain (M1 to R354 residues) expressed in Sf9 insect cells at 1 uM relative to control
Mitogen-activated protein kinase 15 (Homo sapiens), sequence (Q8TD08 whole entry, the tested form may be a part): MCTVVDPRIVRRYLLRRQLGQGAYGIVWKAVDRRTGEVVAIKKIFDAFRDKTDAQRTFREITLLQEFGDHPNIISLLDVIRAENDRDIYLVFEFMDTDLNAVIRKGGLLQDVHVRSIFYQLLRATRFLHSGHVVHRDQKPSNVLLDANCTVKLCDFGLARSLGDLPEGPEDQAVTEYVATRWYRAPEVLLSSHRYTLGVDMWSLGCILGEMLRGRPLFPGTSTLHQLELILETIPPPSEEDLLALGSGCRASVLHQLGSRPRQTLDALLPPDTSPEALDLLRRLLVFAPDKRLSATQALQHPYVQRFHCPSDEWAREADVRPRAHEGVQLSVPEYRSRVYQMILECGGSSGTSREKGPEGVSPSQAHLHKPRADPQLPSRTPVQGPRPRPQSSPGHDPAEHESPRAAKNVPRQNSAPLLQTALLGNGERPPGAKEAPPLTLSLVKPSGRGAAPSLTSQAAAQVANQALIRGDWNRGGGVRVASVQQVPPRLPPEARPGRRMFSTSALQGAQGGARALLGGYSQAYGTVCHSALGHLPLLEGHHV

[5] = Fraction unbound in rat plasma; assay type: ADME, cell-free
[6] = molecular target: T2, CDK2/Cyclin A1 (Homo sapiens) (UniProt P24941+P78396); experiment: Inhibition of recombinant human full length His-tagged CDK2/Cyclin A expressed in baculovirus expression system at 1 uM relative to control
[7] = Half life in po dosed dog; assay type: ADME, organism-based, Canis lupus familiaris; conditions: in vivo
[8] = molecular target: Dual specificity mitogen-activated protein kinase kinase 2 (Homo sapiens) (UniProt P36507); experiment: Inhibition of recombinant full length his-tagged human MEK2 expressed in baculovirus expression system at 1 uM relative to control
Dual specificity mitogen-activated protein kinase kinase 2 (Homo sapiens), sequence (P36507 whole entry): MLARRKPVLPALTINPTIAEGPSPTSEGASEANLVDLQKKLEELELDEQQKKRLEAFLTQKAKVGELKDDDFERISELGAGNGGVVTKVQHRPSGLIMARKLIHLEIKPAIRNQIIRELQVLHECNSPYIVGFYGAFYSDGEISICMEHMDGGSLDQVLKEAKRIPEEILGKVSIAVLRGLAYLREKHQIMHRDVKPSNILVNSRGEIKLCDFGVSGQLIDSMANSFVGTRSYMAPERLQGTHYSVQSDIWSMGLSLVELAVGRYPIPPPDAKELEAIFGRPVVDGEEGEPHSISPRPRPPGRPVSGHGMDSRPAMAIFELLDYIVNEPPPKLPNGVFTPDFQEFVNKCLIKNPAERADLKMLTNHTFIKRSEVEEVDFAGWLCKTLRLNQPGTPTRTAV

[9] = molecular target: Dual specificity mitogen-activated protein kinase kinase 2 (Homo sapiens) (UniProt P36507); experiment: Inhibition of recombinant full length his-tagged human MEK2 expressed in baculovirus expression system at 1 uM by GST-tagged full length human inactive ERK2 expressed in baculovirus expression system coupled cascade assay relative to control
[10] = molecular target: T1, Mitogen-activated protein kinase 1; experiment: Binding affinity to non-phosphorylated biotinylated ERK2 (unknown origin) by SPR analysis
[11] = molecular target: Mitogen-activated protein kinase kinase kinase 8 (Homo sapiens) (UniProt P41279); experiment: Inhibition of recombinant GST-tagged human COT catalytic domain expressed in baculovirus expression system at 1 uM by GST-tagged full length human inactive ERK2 expressed in baculovirus expression system coupled cascade assay relative to control
Mitogen-activated protein kinase kinase kinase 8 (Homo sapiens), sequence (P41279 whole entry, the tested form may be a part): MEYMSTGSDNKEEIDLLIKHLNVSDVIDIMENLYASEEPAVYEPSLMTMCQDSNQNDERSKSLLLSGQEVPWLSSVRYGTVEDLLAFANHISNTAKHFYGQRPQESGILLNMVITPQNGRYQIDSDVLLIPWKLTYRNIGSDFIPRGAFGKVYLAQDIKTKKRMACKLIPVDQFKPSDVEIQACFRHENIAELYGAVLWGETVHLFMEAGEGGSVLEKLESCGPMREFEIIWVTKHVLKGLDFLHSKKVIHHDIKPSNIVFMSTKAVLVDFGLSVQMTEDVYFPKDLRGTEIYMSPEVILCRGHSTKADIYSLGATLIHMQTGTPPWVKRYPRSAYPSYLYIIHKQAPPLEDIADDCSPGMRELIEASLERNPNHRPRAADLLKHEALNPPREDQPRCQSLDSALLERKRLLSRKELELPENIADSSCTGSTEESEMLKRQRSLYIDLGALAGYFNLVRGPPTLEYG

[12] = Fraction unbound in human plasma; assay type: ADME, cell-free
[13] = molecular target: T3, Cyclin-dependent kinase 5/CDK5 activator 1 (Homo sapiens, UniProt Q00535); experiment: Inhibition of recombinant full length human GST/His-tagged CDK5/p25 expressed in baculovirus expression system
T3 sequence (Q00535 whole entry): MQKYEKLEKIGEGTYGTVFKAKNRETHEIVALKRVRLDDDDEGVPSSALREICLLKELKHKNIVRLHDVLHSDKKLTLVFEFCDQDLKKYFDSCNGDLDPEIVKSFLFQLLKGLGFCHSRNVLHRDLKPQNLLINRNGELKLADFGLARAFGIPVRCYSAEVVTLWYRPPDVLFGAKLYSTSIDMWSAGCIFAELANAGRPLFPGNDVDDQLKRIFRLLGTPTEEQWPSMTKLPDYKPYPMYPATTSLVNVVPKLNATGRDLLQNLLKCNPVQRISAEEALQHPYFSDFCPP
T3 sequence (Q15078 whole entry, further chain): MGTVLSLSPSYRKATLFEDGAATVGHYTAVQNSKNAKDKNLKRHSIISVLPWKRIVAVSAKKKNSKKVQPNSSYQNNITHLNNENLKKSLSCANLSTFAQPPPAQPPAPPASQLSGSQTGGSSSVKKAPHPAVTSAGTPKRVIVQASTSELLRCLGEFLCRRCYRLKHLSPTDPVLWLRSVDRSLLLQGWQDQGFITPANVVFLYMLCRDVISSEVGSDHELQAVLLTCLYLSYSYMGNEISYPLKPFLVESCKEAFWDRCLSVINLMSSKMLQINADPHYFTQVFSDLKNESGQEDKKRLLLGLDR

[14] = molecular target: T1, Mitogen-activated protein kinase 1; remark: listed apart in the source
[15] = Oral bioavailability in dog; assay type: ADME, organism-based, Canis lupus familiaris; conditions: in vivo
[16] = Fraction unbound in dog plasma; assay type: ADME, cell-free, Canis lupus familiaris
[17] = tested on: RAF proto-oncogene serine/threonine-protein kinase (Homo sapiens), P04049 [Y340D,Y341D]; experiment: Inhibition of recombinant human GST-tagged c-RAF1 Y340D/Y341D mutant catalytic domain expressed in baculovirus expression system at 1 uM relative to control
[18] = molecular target: Voltage-gated inwardly rectifying potassium channel KCNH2 (Homo sapiens, UniProt Q12809)
Voltage-gated inwardly rectifying potassium channel KCNH2, sequence (Q12809 whole entry): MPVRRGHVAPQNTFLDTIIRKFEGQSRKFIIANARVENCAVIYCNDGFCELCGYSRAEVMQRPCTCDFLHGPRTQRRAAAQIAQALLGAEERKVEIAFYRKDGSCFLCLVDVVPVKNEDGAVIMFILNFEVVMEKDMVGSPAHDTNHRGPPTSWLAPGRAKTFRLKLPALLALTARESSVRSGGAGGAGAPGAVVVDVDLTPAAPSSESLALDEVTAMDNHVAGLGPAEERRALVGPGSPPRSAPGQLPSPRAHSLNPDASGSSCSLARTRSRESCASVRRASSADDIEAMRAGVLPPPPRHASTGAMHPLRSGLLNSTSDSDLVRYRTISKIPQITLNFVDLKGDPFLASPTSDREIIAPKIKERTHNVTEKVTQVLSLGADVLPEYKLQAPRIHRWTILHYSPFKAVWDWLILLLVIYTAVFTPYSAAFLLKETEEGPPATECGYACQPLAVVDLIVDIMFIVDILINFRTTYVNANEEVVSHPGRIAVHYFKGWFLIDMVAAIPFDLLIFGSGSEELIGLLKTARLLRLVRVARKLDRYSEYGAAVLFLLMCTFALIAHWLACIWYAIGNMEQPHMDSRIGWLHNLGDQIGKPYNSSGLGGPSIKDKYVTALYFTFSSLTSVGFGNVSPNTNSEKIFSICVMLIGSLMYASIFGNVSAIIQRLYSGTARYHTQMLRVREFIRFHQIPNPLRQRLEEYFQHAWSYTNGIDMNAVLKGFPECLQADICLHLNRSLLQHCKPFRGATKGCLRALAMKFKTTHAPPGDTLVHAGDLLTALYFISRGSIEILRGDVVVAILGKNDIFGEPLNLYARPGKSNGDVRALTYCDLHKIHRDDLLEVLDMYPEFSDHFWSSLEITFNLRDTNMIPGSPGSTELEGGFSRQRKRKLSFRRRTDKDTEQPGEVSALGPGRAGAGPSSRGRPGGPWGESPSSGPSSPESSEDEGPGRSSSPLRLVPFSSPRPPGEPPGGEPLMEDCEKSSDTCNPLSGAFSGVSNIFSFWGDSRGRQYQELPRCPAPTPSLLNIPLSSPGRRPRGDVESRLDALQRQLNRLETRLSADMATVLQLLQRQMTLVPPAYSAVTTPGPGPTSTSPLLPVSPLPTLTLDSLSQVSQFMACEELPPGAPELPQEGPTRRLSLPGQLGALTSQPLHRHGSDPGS

Calu-6 [19] = experiment: Antiproliferative activity against human Calu6 cells expressing KRAS Q61K mutant assessed as growth inhibition; assay type: functional
A549 = experiment: Antitumor activity against human A549 cells harboring KRAS […] mutant xenografted in athymic Nude-Foxn1nu mouse assessed as tumor regression at 25 mg/kg, po bid adminstered for 21 days and measured twice per week in presence of selumetinib by caliper method relative to control; assay type: functional
[20] = Oral bioavailability in rat; assay type: ADME, organism-based; conditions: in vivo
[21] = molecular target: T3, Cyclin-dependent kinase 5/CDK5 activator 1; experiment: Inhibition of recombinant full length human His-tagged CDK5/p35 expressed in baculovirus expression system
[22] = molecular target: Mitogen-activated protein kinase; ERK1/ERK2 (Homo sapiens, UniProt P27361+P28482); experiment: Inhibition of ERK1/2 in human A375 cells assessed as inhibition of RSK phosphorylation after 2 hrs; assay type: cell-based
[23] = molecular target: NUAK family SNF1-like kinase 1 (Homo sapiens) (UniProt O60285); experiment: Inhibition of recombinant full length human His-tagged ARK5 expressed in baculovirus expression system at 1 uM relative to control
[24] = molecular target: CDK2/Cyclin O (Homo sapiens) (UniProt P24941+P22674); experiment: Inhibition of recombinant human full length N-terminal GST-tagged CDK2/Cyclin O expressed in baculovirus infected Sf9 cells at 1 uM relative to control
[25] = molecular target: Dual specificity mitogen-activated protein kinase kinase 1 (Homo sapiens) (UniProt Q02750); experiment: Inhibition of recombinant full length His-tagged human MEK1 expressed in baculovirus expression system at 1 uM by GST-tagged full length human inactive ERK2 coupled cascade assay relative to control
[26] = Half life in po dosed rat; assay type: ADME, organism-based; conditions: in vivo
Mus musculus [27] = experiment: Reduction in phosphorylated RSK level in athymic Nude-Foxn1nu mouse xenografted with human Calu6 cells expressing KRAS Q61K mutant at 25 mg/kg, po qd adminstered for 21 days and measured after 0.5 hrs post dose by Western blot analysis relative to control; assay type: functional; conditions: Calu-6, po
[28] = molecular target: Serine/threonine-protein kinase B-raf (Homo sapiens) (UniProt P15056); experiment: Inhibition of recombinant full length GST-tagged human BRAF1 expressed in baculovirus expression system at 1 uM relative to control
Serine/threonine-protein kinase B-raf (Homo sapiens), sequence (P15056 whole entry): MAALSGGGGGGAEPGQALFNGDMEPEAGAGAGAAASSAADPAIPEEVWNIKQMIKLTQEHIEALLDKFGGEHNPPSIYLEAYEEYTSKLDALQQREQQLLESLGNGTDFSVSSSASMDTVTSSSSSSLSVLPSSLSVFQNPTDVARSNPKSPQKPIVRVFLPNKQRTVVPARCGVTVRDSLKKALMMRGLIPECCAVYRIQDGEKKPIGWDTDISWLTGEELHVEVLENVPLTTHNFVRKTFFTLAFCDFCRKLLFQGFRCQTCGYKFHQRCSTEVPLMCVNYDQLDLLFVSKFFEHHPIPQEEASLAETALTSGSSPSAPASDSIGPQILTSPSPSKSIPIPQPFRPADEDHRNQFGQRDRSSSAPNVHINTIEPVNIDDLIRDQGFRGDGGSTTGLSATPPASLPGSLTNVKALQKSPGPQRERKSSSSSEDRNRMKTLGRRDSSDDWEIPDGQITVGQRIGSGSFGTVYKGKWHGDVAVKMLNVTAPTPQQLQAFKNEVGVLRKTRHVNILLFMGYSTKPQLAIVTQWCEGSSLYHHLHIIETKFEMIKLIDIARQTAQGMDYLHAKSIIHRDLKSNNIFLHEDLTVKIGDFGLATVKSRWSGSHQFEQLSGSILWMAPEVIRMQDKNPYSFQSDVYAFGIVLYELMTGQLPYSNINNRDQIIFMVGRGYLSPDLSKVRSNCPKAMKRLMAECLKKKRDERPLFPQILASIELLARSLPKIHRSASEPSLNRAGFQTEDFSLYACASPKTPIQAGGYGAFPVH

[29] = molecular target: Cyclin-dependent kinase 2/cyclin E1 (Homo sapiens) (UniProt P24864+P24941); experiment: Inhibition of human full length C-terminal His6-tagged Cdk2/human full length N-terminal GST-tagged Cyclin E expressed in baculovirus infected Sf21 insect cells at 1 uM after 1 hr by electromobility shift assay relative to control
[30] = molecular target: T1, Mitogen-activated protein kinase 1; remark: listed apart in the source
Calu-6 [31] = experiment: Antitumor activity against human Calu6 cells expressing KRAS Q61K mutant xenografted in athymic Nude-Foxn1nu mouse assessed as tumor regression at 50 mg/kg, po qd adminstered for 21 days and measured twice per week by caliper method relative to control; assay type: functional
[32] = molecular target: T1, Mitogen-activated protein kinase 1; remark: listed apart in the source
[33] = molecular target: T2, CDK2/Cyclin A1 (Homo sapiens); experiment: Binding affinity to recombinant human full length N-terminal GST-tagged CDK2/Cyclin A1 expressed in baculovirus infected Sf9 cells at 1 uM relative to control
[34] = molecular target: Cyclin-dependent kinase 5 (Homo sapiens) (UniProt Q00535); experiment: Binding affinity to recombinant human GST-tagged inactive CDK5
Cyclin-dependent kinase 5 (Homo sapiens), sequence (Q00535 whole entry, looked up): as the sequence (Q00535 whole entry) above

Calu-6 [35] = experiment: Antitumor activity against human Calu6 cells expressing KRAS Q61K mutant xenografted in athymic Nude-Foxn1nu mouse assessed as tumor growth inhibition at 15 mg/kg, po qd adminstered for 21 days and measured twice per week by caliper method relative to control; assay type: functional; conditions: Calu-6, po, 504 h, read-out: TGI
Mus musculus [36] = experiment: Reduction in phosphorylated RSK level in athymic Nude-Foxn1nu mouse xenografted with human Calu6 cells expressing KRAS Q61K mutant at 25 mg/kg, po qd adminstered for 21 days and measured after 6 hrs post dose by Western blot analysis relative to control; assay type: functional; conditions: Calu-6, po
[37] = molecular target: Mitogen-activated protein kinase 3 (Homo sapiens) (UniProt P27361); experiment: Inhibition of GST-tagged recombinant human full length ERK1 expressed in Escherichia coli at 1 uM relative to control
Mitogen-activated protein kinase 3 (Homo sapiens), sequence (P27361 whole entry): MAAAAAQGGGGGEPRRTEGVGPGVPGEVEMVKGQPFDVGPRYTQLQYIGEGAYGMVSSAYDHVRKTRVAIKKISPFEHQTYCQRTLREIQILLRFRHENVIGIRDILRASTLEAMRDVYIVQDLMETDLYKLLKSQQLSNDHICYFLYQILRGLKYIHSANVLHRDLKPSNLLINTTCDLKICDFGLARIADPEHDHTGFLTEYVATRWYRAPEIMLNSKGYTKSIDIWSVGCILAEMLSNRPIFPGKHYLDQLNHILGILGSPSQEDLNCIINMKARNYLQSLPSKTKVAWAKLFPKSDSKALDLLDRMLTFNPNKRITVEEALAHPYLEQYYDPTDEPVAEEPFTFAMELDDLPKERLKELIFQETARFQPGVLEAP

T1 sequence (P28482 whole entry): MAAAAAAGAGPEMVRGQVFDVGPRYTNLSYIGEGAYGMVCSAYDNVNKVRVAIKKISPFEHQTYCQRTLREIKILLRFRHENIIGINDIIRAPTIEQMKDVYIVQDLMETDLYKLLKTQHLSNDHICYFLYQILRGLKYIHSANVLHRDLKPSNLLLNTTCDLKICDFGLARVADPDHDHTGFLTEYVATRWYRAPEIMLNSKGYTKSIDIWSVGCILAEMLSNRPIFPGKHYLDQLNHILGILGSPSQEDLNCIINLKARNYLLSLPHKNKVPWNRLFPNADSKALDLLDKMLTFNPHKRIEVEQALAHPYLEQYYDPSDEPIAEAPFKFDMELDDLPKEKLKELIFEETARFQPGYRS

## COC[C@H]1Cn2cc(-c3nc(Nc4ccnn4C)ncc3C)nc2C(=O)N1Cc1ccc(F)c(F)c1 [TIZATERKIB]
[1]
  Kd: 0.0501 nM
[2]
  Kdiss: 6 ×10⁻⁵ /s
[3]
  Vd: 1.5 L/kg
[4]
  inhibition: 99%
[5]
  fraction unbound: 0.21
[6]
  inhibition: 87%
[7]
  half-life: 5 h
[8]
  inhibition: -2.2%
[9]
  inhibition: 101%
[10]
  Kd: 0.1 nM
[11]
  inhibition: 103%
[12]
  fraction unbound: 0.06 to 0.27
[13]
  IC50: 300 nM
[14]
  T1/2: 3.23 h
[15]
  bioavailability: 100%
[16]
  fraction unbound: 0.44
[17]
  inhibition: -3.5%
[18]
  IC50: 11000 nM
Calu-6 [19]
  GI50: 200 nM
A549
  Activity: 28%
[20]
  bioavailability: 30%
[21]
  IC50: 300 nM
[22]
  IC50: 5.7 nM
[23]
  inhibition: 80%
[24]
  inhibition: 95%
[25]
  inhibition: 104%
[26]
  half-life: 2.3 h
Mus musculus [27]
  inhibition in vivo at 25 mg/kg: 100%
[28]
  inhibition: 5.8%
[29]
  inhibition: 89%
[30]
  Ka: 8.9 ×10⁻⁵ /M/s
Calu-6 [31]
  Activity: 49%
[32]
  T1/2: 4.62 h
[33]
  Activity: 91%
[34]
  Activity: 1.9 µM
Calu-6 [35]
  inhibition in vivo at 15 mg/kg: 93%
Mus musculus [36]
  inhibition in vivo at 25 mg/kg: 100%
[37]
  inhibition: 105%
